# Source: US7060822B1, “2-pyrazolin-5-ones” (Abbott GmbH & Co. KG, priority 1999, dated 2006)
row,Structure (SMILES),melting point [°C]
1,"CCOC1=NNC(=O)C1=Cc1cc(C(=O)O)c[nH]1 [Example 154, 4-[(4-Carboxypyrrol-2-yl)methylene]-3-ethoxy-2-pyrazolin-5-one]",290 to 293
2,"CCN(CC)Cc1c(C)[nH]c(C=C2C(=O)NN=C2c2cnccn2)c1C [Example 166, 4-[(4-Diethylaminomethyl-3,5-dimethylpyrrol-2-yl)methylene]-3-pyrazinyl-2-pyrazolin-5-one]",242 to 244
3,"CC(C)OC1=NNC(=O)C1=Cc1ncc[nH]1 [Example 364, 4-[(Imidazol-2-yl)methylene]-3-isopropoxy-2-pyrazolin-5-one]",212 to 214
4,"Cc1ccc(CC2=NNC(=O)C2=Cc2c[nH]c3ncccc23)cc1 [Example 340, 4-[(7-Azaindol-3-yl)methylene]-3-(4-methylbenzyl)-2-pyrazolin-5-one]",> 300

# Results, then the molecule that gave them:
row,melting point [°C],Structure (SMILES)
1,245 to 246,"O=C1NN=C(C2CC2)C1=Cc1c[nH]c2ncccc12 [Example 344, 4-[(7-Azaindol-3-yl)methylene]-3-cyclopropyl-2-pyrazolin-5-one]"
2,268 to 270,"O=C1NN=C(CCc2ccccc2)C1=Cc1c[nH]c2ccccc12 [Example 217, 4-[(Indol-3-yl)methylene]-3-phenylethyl-2-pyrazolin-5-one]"
